From ChEMBL document CHEMBL1155809, “Design, synthesis, and antihepatocellular carcinoma activity of nitric oxide releasing derivatives of oleanolic acid” (J Med Chem, 2008) come the findings set out here.

Molecules are shown by their SMILES. Active and inactive are the calls of the source. No cut-off for these calls is given here.

Assay [1] deals with Hep 3B2. As to the kind of experiment: Cytotoxicity against human Hep3B cells assessed as cell death after 24 hrs by lactate dehydrogenase release assay. The class given is functional, cell-based.
The test system of assay [2] is HepG2. In words: Cytotoxicity against human HepG2 cells assessed as cell death after 24 hrs by lactate dehydrogenase release assay. The class given is functional, cell-based.
Assay [3] concerns MCF7. In words: Cytotoxicity against human MCF7 cells assessed as cell death by lactate dehydrogenase release assay. In kind it is functional, cell-based.
The test system of assay [4] is HEK293. In words: Cytotoxicity against HEK293 cells assessed as cell death by lactate dehydrogenase release assay. The class given is functional, cell-based. The note with it: Homo sapiens.
Assay [5] relates to Hep 3B2. In words: Cytotoxicity against human Hep3B cells assessed as levels of nitric oxide production at 100 uM after 30 to 300 mins by colorimetric assay. The class given is functional, cell-based.
The subject of assay [6] is HeLa. As to the kind of experiment: Cytotoxicity against human HeLa cells assessed as levels of nitric oxide production at 100 uM after 30 to 300 mins by colorimetric assay. In kind it is functional, cell-based.
In assay [7] the test system is PC-3. In words: Cytotoxicity against human PC3 cells assessed as levels of nitric oxide production at 100 uM after 30 to 300 mins by colorimetric assay. In kind it is functional, cell-based.
The test system of assay [8] is MCF7. As to the kind of experiment: Cytotoxicity against human MCF7 cells assessed as levels of nitric oxide production at 100 uM after 30 to 300 mins by colorimetric assay. In kind it is functional, cell-based.
Assay [9] concerns HEK293. In words: Cytotoxicity against human HEK293 cells assessed as levels of nitric oxide production at 100 uM after 30 to 300 mins by colorimetric assay. The class given is functional, cell-based.
The test system of assay [10] is HepG2. As to the kind of experiment: Cytotoxicity against human HepG2 cells assessed as levels of nitric oxide production at 100 uM after 30 to 300 mins by colorimetric assay. In kind it is functional, cell-based.
In assay [11] the test system is HepG2. As to the kind of experiment: Cytotoxicity against human HepG2 cells assessed as cell death at 1 uM after 24 hrs by lactate dehydrogenase release assay. The class given is functional.
Assay [12] concerns HepG2. In words: Cytotoxicity against human HepG2 cells assessed as cell death at 0.1 uM after 24 hrs by lactate dehydrogenase release assay. In kind it is functional.
For assay [13], the system named is HepG2. In words: Cytotoxicity against human HepG2 cells assessed as cell death at 0.01 uM after 24 hrs by lactate dehydrogenase release assay. The class given is functional.
Assay [14] concerns HepG2. As to the kind of experiment: Cytotoxicity against human HepG2 cells assessed as cell death at 0.001 uM after 24 hrs by lactate dehydrogenase release assay. The class given is functional.
A short description of assay [15]: Cytotoxicity against human Hep3B cells assessed as cell death at 1 uM after 24 hrs by lactate dehydrogenase release assay. The class given is functional, Hep 3B2.
Assay [16] in a line: Cytotoxicity against human Hep3B cells assessed as cell death at 0.1 uM after 24 hrs by lactate dehydrogenase release assay. In kind it is functional, Hep 3B2.
Assay [17] in a line: Cytotoxicity against human Hep3B cells assessed as cell death at 0.01 uM after 24 hrs by lactate dehydrogenase release assay. In kind it is functional, Hep 3B2.
A short description of assay [18]: Cytotoxicity against human Hep3B cells assessed as cell death at 0.001 uM after 24 hrs by lactate dehydrogenase release assay. The class given is functional, Hep 3B2.
Assay [19] has as its system HeLa. As to the kind of experiment: Cytotoxicity against human HeLa cells assessed as cell death by lactate dehydrogenase release assay. The class given is functional, cell-based.
The test system of assay [20] is PC-3. In words: Cytotoxicity against human PC3 cells assessed as cell death by lactate dehydrogenase release assay. The class given is functional, cell-based.

Take `CCOC(=O)[C@]12CCC(C)(C)C[C@H]1C1=CC[C@@H]3[C@@]4(C)CC[C@H](OC(=O)CCC(=O)OCc5cccc(OCc6c(-c7ccccc7)no[n+]6[O-])c5)C(C)(C)[C@@H]4CC[C@@]3(C)[C@]1(C)CC2`: the outcome in the assay on Hep 3B2 [1] and in the assay on HepG2 [2] was inactive.
For the compound `CC1(C)CC[C@]2(C(=O)O)CC[C@]3(C)C(=CC[C@@H]4[C@@]5(C)CC[C@H](OC(=O)CCC(=O)OCC#CCOc6no[n+]([O-])c6S(=O)(=O)c6ccccc6)C(C)(C)[C@@H]5CC[C@]43C)[C@@H]2C1`, the result with MCF7 [3], in the assay on HEK293 [4], with HeLa [6], with PC-3 [7], in the assay with MCF7 [8] and in the assay with HEK293 [9] was inactive. Also, the outcome in the assay with HeLa [19] and in the assay with PC-3 [20] was inactive. In addition, the result in the assay with Hep 3B2 [5] and with HepG2 [10] was Active. The Activity in the assay on HepG2 [11] came out at 67.41%; in the assay with HepG2 [12], 13.68%; in the assay with HepG2 [13], 10.07%; in the assay with HepG2 [14], 0%; in assay [15], 72.51%; in assay [16], 19.61%. For the same compound, the Activity is listed as 8.42% in assay [17] and 0% in assay [18].
For `CC1(C)CC[C@]2(C(=O)O)CC[C@]3(C)C(=CC[C@@H]4[C@@]5(C)CC[C@H](OC(=O)CCC(=O)Oc6cccc(OCc7c(-c8ccccc8)no[n+]7[O-])c6)C(C)(C)[C@@H]5CC[C@]43C)[C@@H]2C1`, the outcome with Hep 3B2 [1] and with HepG2 [2] was inactive.
For the compound `CC1(C)CC[C@]2(C(=O)OCc3ccccc3)CC[C@]3(C)C(=CC[C@@H]4[C@@]5(C)CC[C@H](OC(=O)CCC(=O)OCc6ccc(Oc7no[n+]([O-])c7S(=O)(=O)c7ccccc7)cc6)C(C)(C)[C@@H]5CC[C@]43C)[C@@H]2C1`, the result in the assay with Hep 3B2 [1] and with HepG2 [2] was inactive.
Consider `CC1(C)CC[C@]2(C(=O)OCC#CCOc3no[n+]([O-])c3S(=O)(=O)c3ccccc3)CC[C@]3(C)C(=CC[C@@H]4[C@@]5(C)CC[C@H](OC(=O)C(F)(F)F)C(C)(C)[C@@H]5CC[C@]43C)[C@@H]2C1`, for which the result with Hep 3B2 [1] and in the assay with HepG2 [2] was inactive.
On to `CC1(C)CC[C@]2(C(=O)OCCOCCOc3no[n+]([O-])c3S(=O)(=O)c3ccccc3)CC[C@]3(C)C(=CC[C@@H]4[C@@]5(C)CC[C@H](OC(=O)C(F)(F)F)C(C)(C)[C@@H]5CC[C@]43C)[C@@H]2C1`, for which the outcome in the assay with Hep 3B2 [1] and with HepG2 [2] was inactive.
On to `CC1(C)CC[C@]2(C(=O)O)CC[C@]3(C)C(=CC[C@@H]4[C@@]5(C)CC[C@H](OC(=O)CCC(=O)OCc6cccc(OCc7c(-c8ccccc8)no[n+]7[O-])c6)C(C)(C)[C@@H]5CC[C@]43C)[C@@H]2C1`, for which the result with Hep 3B2 [1] and in the assay on HepG2 [2] was inactive.
In the case of `CC1(C)CC[C@]2(C(=O)O)CC[C@]3(C)C(=CC[C@@H]4[C@@]5(C)CC[C@H](OC(=O)CCC(=O)OCc6ccc(Oc7no[n+]([O-])c7S(=O)(=O)c7ccccc7)cc6)C(C)(C)[C@@H]5CC[C@]43C)[C@@H]2C1`, the result with Hep 3B2 [1] and with HepG2 [2] was inactive.
On to `CC1(C)CC[C@]2(C(=O)OCc3c(-c4ccccc4)no[n+]3[O-])CC[C@]3(C)C(=CC[C@@H]4[C@@]5(C)CC[C@H](OC(=O)C(F)(F)F)C(C)(C)[C@@H]5CC[C@]43C)[C@@H]2C1`, for which the result with Hep 3B2 [1] and in the assay with HepG2 [2] was inactive.
With `CC1(C)CC[C@]2(C(=O)OCCCCOc3no[n+]([O-])c3S(=O)(=O)c3ccccc3)CC[C@]3(C)C(=CC[C@@H]4[C@@]5(C)CC[C@H](OC(=O)C(F)(F)F)C(C)(C)[C@@H]5CC[C@]43C)[C@@H]2C1`, the outcome in the assay with Hep 3B2 [1] and in the assay with HepG2 [2] was inactive.
Regarding `CC1(C)CC[C@]2(C(=O)OCc3cccc(OCc4c(-c5ccccc5)no[n+]4[O-])c3)CC[C@]3(C)C(=CC[C@@H]4[C@@]5(C)CC[C@H](O)C(C)(C)[C@@H]5CC[C@]43C)[C@@H]2C1`, the result in the assay with Hep 3B2 [1] and with HepG2 [2] was inactive.
On to `CC1(C)CC[C@]2(C(=O)O)CC[C@]3(C)C(=CC[C@@H]4[C@@]5(C)CC[C@H](OC(=O)CCC(=O)OCc6ccc(OCc7c(-c8ccccc8)no[n+]7[O-])cc6)C(C)(C)[C@@H]5CC[C@]43C)[C@@H]2C1`, for which the result in the assay with Hep 3B2 [1] and with HepG2 [2] was inactive.
As for `CC1(C)CC[C@]2(C(=O)OCc3ccccc3)CC[C@]3(C)C(=CC[C@@H]4[C@@]5(C)CC[C@H](OC(=O)CCC(=O)OCCCCOc6no[n+]([O-])c6S(=O)(=O)c6ccccc6)C(C)(C)[C@@H]5CC[C@]43C)[C@@H]2C1`, the outcome in the assay on Hep 3B2 [1] and in the assay with HepG2 [2] was inactive.
For `CC1(C)CC[C@]2(C(=O)OCc3c(-c4ccccc4)no[n+]3[O-])CC[C@]3(C)C(=CC[C@@H]4[C@@]5(C)CC[C@H](O)C(C)(C)[C@@H]5CC[C@]43C)[C@@H]2C1`, the outcome with Hep 3B2 [1] and in the assay on HepG2 [2] was inactive.
For the compound `CC1(C)CC[C@]2(C(=O)OCc3ccccc3)CC[C@]3(C)C(=CC[C@@H]4[C@@]5(C)CC[C@H](OC(=O)CCC(=O)OCc6c(-c7ccccc7)no[n+]6[O-])C(C)(C)[C@@H]5CC[C@]43C)[C@@H]2C1`, the outcome in the assay on Hep 3B2 [1] and in the assay on HepG2 [2] was inactive.
As to `CC1(C)CC[C@]2(C(=O)OCc3ccc(OCc4c(-c5ccccc5)no[n+]4[O-])cc3)CC[C@]3(C)C(=CC[C@@H]4[C@@]5(C)CC[C@H](OC(=O)C(F)(F)F)C(C)(C)[C@@H]5CC[C@]43C)[C@@H]2C1`, the outcome with Hep 3B2 [1] and in the assay with HepG2 [2] was inactive.
For the compound `CCOC(=O)[C@]12CCC(C)(C)C[C@H]1C1=CC[C@@H]3[C@@]4(C)CC[C@H](OC(=O)CCC(=O)OCCOCCOc5no[n+]([O-])c5S(=O)(=O)c5ccccc5)C(C)(C)[C@@H]4CC[C@@]3(C)[C@]1(C)CC2`, the result in the assay with Hep 3B2 [1] and in the assay with HepG2 [2] was inactive.
On to `CC1(C)CC[C@]2(C(=O)OCc3cccc(OCc4c(-c5ccccc5)no[n+]4[O-])c3)CC[C@]3(C)C(=CC[C@@H]4[C@@]5(C)CC[C@H](OC(=O)C(F)(F)F)C(C)(C)[C@@H]5CC[C@]43C)[C@@H]2C1`, for which the result in the assay with Hep 3B2 [1] and with HepG2 [2] was inactive.
With `CC1(C)CC[C@]2(C(=O)OCCCCOc3no[n+]([O-])c3S(=O)(=O)c3ccccc3)CC[C@]3(C)C(=CC[C@@H]4[C@@]5(C)CC[C@H](O)C(C)(C)[C@@H]5CC[C@]43C)[C@@H]2C1`, the result in the assay on Hep 3B2 [1] and in the assay with HepG2 [2] was inactive.
Consider `CCOC(=O)[C@]12CCC(C)(C)C[C@H]1C1=CC[C@@H]3[C@@]4(C)CC[C@H](OC(=O)CCC(=O)OCc5ccc(OCc6c(-c7ccccc7)no[n+]6[O-])cc5)C(C)(C)[C@@H]4CC[C@@]3(C)[C@]1(C)CC2`, for which the outcome in the assay with Hep 3B2 [1] and with HepG2 [2] was inactive.
Take `CC(CCOc1no[n+]([O-])c1S(=O)(=O)c1ccccc1)OC(=O)CCC(=O)O[C@H]1CC[C@]2(C)[C@H]3CC=C4[C@@H]5CC(C)(C)CC[C@]5(C(=O)OCc5ccccc5)CC[C@@]4(C)[C@]3(C)CC[C@H]2C1(C)C` (some centres undefined): the outcome with Hep 3B2 [1] and with HepG2 [2] was inactive.
With `CC1(C)CC[C@]2(C(=O)OCc3ccccc3)CC[C@]3(C)C(=CC[C@@H]4[C@@]5(C)CC[C@H](OC(=O)CCC(=O)OCc6cccc(Oc7no[n+]([O-])c7S(=O)(=O)c7ccccc7)c6)C(C)(C)[C@@H]5CC[C@]43C)[C@@H]2C1`, the result in the assay with Hep 3B2 [1] and with HepG2 [2] was inactive.
Consider `CCOC(=O)[C@]12CCC(C)(C)C[C@H]1C1=CC[C@@H]3[C@@]4(C)CC[C@H](OC(=O)CCC(=O)OC(C)CCOc5no[n+]([O-])c5S(=O)(=O)c5ccccc5)C(C)(C)[C@@H]4CC[C@@]3(C)[C@]1(C)CC2` (some centres undefined), for which the result in the assay on Hep 3B2 [1] and in the assay with HepG2 [2] was inactive.
In the case of `CC1(C)CC[C@]2(C(=O)OCc3ccc(Oc4no[n+]([O-])c4S(=O)(=O)c4ccccc4)cc3)CC[C@]3(C)C(=CC[C@@H]4[C@@]5(C)CC[C@H](OC(=O)C(F)(F)F)C(C)(C)[C@@H]5CC[C@]43C)[C@@H]2C1`, the result with Hep 3B2 [1] and in the assay with HepG2 [2] was inactive.
